Test systems include CCRF-CEM leukemia; COLO 205 colon; HCT-116 colon; HT29 colon; MALME-3M melanoma; NCI-H226 lung; NCI-H522 lung; SF-539 CNS; SK-MEL-5 melanoma; SR leukemia.
Holding throughout (assay): NCI anticancer screen, dose series, 48 h

Results on ten compounds are retold here after PubChem BioAssay (NCI).

SMILES strings stand for the structures. “And” between values parts separate entries of the source, which are not always exact repeats. Identical values can stand only once.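 Compound exposure: 48 hours, 5 concentrations, 96-well plates. GI50 is the concentration that inhibits growth by half. TGI is the concentration that stops growth completely.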 A value given as a limit tells only on which side of the number the result lay.

Consider `[Au+].c1c[n-]cn1.c1ccc([PH+](c2ccccc2)c2ccccc2)cc1`, for which the GI50 with CCRF-CEM leukemia is 1.78 µM; with COLO 205 colon it was 1.99 µM; in the assay with HCT-116 colon, 5.19 µM; in the assay with HT29 colon, 8 µM; in the assay with MALME-3M melanoma it was 1.96 µM; in the assay with NCI-H226 lung, 12.8 µM. Moreover, the GI50 is 1.19 µM in the assay on NCI-H522 lung, 4.38 µM in the assay with SF-539 CNS, 3.08 µM with SK-MEL-5 melanoma and 2.54 µM in the assay on SR leukemia. The TGI is 17.3 µM in the assay on CCRF-CEM leukemia; 4.07 µM with COLO 205 colon; 14.6 µM with HCT-116 colon; 24.7 µM with HT29 colon; 4.25 µM in the assay on MALME-3M melanoma; 51.3 µM in the assay with NCI-H226 lung. Besides, the TGI in the assay on NCI-H522 lung stood at 2.93 µM; with SF-539 CNS, 10.8 µM; in the assay on SK-MEL-5 melanoma it was 14.4 µM; in the assay with SR leukemia, 9.48 µM.

Consider `O=C(c1ccccc1)c1c2n(c3c1cc(O)c1ccccc13)CCN2`, for which the GI50 in the assay with CCRF-CEM leukemia is 1.99 µM; in the assay on COLO 205 colon, 1.8 µM; in the assay with HCT-116 colon, 3.44 µM; in the assay with HT29 colon it was 3.67 µM; with MALME-3M melanoma, 1.97 µM; in the assay on NCI-H226 lung, 18.6 µM. In addition, the GI50 was 1.96 µM with NCI-H522 lung, 2.39 µM with SF-539 CNS, 12.1 µM in the assay with SK-MEL-5 melanoma and 1.06 µM in the assay on SR leukemia. Also, the TGI in the assay with CCRF-CEM leukemia amounted to 4.67 µM; in the assay with COLO 205 colon it was 3.31 µM; with HCT-116 colon, 10.9 µM; in the assay with HT29 colon, 15.5 µM; in the assay with MALME-3M melanoma it was 4.19 µM; in the assay with NCI-H226 lung, 41.3 µM. Further, the TGI with NCI-H522 lung stood at 4.03 µM; with SF-539 CNS it was 6.04 µM; in the assay with SK-MEL-5 melanoma, 25.1 µM; in the assay with SR leukemia, 3.46 µM.

For `O=C1Nc2c(ccc(Cl)c2Cl)/C1=C\c1cc(C(F)(F)F)cc(C(F)(F)F)c1`, the GI50 with CCRF-CEM leukemia is 0.959 µM; with COLO 205 colon it was 1.32 µM; with HCT-116 colon, 1.41 µM; with HT29 colon it was 1.95 µM; with MALME-3M melanoma, 0.795 µM; with NCI-H226 lung, 5.48 µM. The GI50 in the assay with NCI-H522 lung was 1.54 µM; with SF-539 CNS, 6.95 µM; in the assay on SK-MEL-5 melanoma it was 2.67 µM; with SR leukemia it was 0.392 µM. Further, the TGI amounted to 2.58 µM with CCRF-CEM leukemia; 4.84 µM with COLO 205 colon; 5.07 µM with HCT-116 colon; 6.68 µM in the assay on HT29 colon; 8.91 µM in the assay with MALME-3M melanoma; 13.7 µM in the assay on NCI-H226 lung. The TGI in the assay on NCI-H522 lung worked out at 6.47 µM; in the assay on SF-539 CNS, 13.8 µM; in the assay with SK-MEL-5 melanoma it was 8.45 µM; with SR leukemia, 1.9 µM.

As to `c1ccc(N2N=NC3C4CC(C5c6ccccc6C45)C32)cc1` (stereo not given), the TGI in the assay on CCRF-CEM leukemia is more than 100 µM; in the assay with COLO 205 colon, more than 100 µM; in the assay with HCT-116 colon it was 82.7 µM; in the assay on HT29 colon, 40.3 µM; in the assay with MALME-3M melanoma, 69.4 µM; in the assay on NCI-H226 lung, 96.3 µM. Also, the TGI in the assay on NCI-H522 lung is 50.9 µM; in the assay on SF-539 CNS, more than 100 µM; with SK-MEL-5 melanoma, 38.3 µM; with SR leukemia, more than 100 µM.

For `O=C(Nc1ccc(Cl)cc1)c1cc2ccccc2cc1OP(=O)(O)O`, the GI50 in the assay on CCRF-CEM leukemia is 2.82 µM; in the assay with COLO 205 colon it was 14.5 µM; with HCT-116 colon, 3 µM; in the assay on HT29 colon, 28.9 µM; with MALME-3M melanoma, 1.91 µM; with NCI-H226 lung, 2.97 µM. Also, the GI50 was 3.29 µM in the assay with NCI-H522 lung, 4.4 µM in the assay on SF-539 CNS, 2.89 µM in the assay with SK-MEL-5 melanoma and 23.7 µM with SR leukemia. Besides, the TGI was more than 100 µM in the assay with CCRF-CEM leukemia; 27.8 µM in the assay with COLO 205 colon; 11.9 µM in the assay with HCT-116 colon; more than 100 µM in the assay on HT29 colon; 7.3 µM with MALME-3M melanoma; 16.9 µM with NCI-H226 lung. Besides, the TGI was 38.1 µM in the assay with NCI-H522 lung, 19.2 µM with SF-539 CNS, 8.83 µM in the assay on SK-MEL-5 melanoma and more than 100 µM in the assay with SR leukemia.

Regarding `O=C(NC(Cc1ccccc1)C(=O)CCl)OCc1ccccc1` (stereo not given), the GI50 is 2.34 µM in the assay on CCRF-CEM leukemia; 10 µM in the assay on COLO 205 colon; 1.65 µM with HCT-116 colon; 3.53 µM in the assay on HT29 colon; 1.93 µM with MALME-3M melanoma; 13.4 µM in the assay with NCI-H226 lung. Besides, the GI50 is 1.36 µM with NCI-H522 lung, 3 µM in the assay with SF-539 CNS, 4.38 µM with SK-MEL-5 melanoma and 2.23 µM in the assay on SR leukemia. In addition, the TGI with CCRF-CEM leukemia is 13.8 µM and 11.6 µM; in the assay with COLO 205 colon, 24.1 µM and 24 µM; in the assay with HCT-116 colon, 3.32 µM and 26.5 µM; with HT29 colon, 16.5 µM and 37.3 µM; with MALME-3M melanoma it was 6.7 µM and 23.8 µM; with NCI-H226 lung, 55.5 µM. Also, the TGI was 3.43 µM and 4.31 µM in the assay on NCI-H522 lung; 10.3 µM and 16.8 µM in the assay with SF-539 CNS; 16.9 µM and 26.4 µM with SK-MEL-5 melanoma; more than 100 µM with SR leukemia.

On to `CC(O)c1ccc(C(O)/C(=N\NC(=O)c2ccncc2)c2nc3ccc([N+](=O)[O-])cc3[nH]c2=O)cc1` (stereo not given), for which the TGI with CCRF-CEM leukemia, in the assay with COLO 205 colon, in the assay on HCT-116 colon, with HT29 colon, in the assay on MALME-3M melanoma and with NCI-H226 lung was more than 100 µM throughout. For the same compound, the TGI in the assay with NCI-H522 lung, in the assay with SF-539 CNS, with SK-MEL-5 melanoma and in the assay on SR leukemia was more than 100 µM in each case.

Consider `COc1c(OC)c(OC)c(-c2cc(=O)c3c(OC)c(OC)c(OC)c(OC)c3o2)c(OC)c1OC`, for which the TGI in the assay with CCRF-CEM leukemia was more than 100 µM; in the assay on COLO 205 colon, more than 100 µM; in the assay with HCT-116 colon it was 44.9 µM; with HT29 colon it was 86.4 µM; in the assay with MALME-3M melanoma it was more than 100 µM; in the assay with NCI-H226 lung, more than 100 µM. Moreover, the TGI is 33.8 µM in the assay on NCI-H522 lung, more than 100 µM in the assay on SF-539 CNS, 74.9 µM with SK-MEL-5 melanoma and more than 100 µM in the assay with SR leukemia.

In the case of `C=C(C)C1CCC2(C(=O)O)CCC3(C)C(CCC4C5(C)CCC(O)C(C)(C)C5CCC43C)C12` (stereo not given), the TGI was determined as 36.5 µM in the assay with CCRF-CEM leukemia; 16.6 µM in the assay on COLO 205 colon; 17.5 µM in the assay on HCT-116 colon; 23.9 µM in the assay on HT29 colon; 27.9 µM with MALME-3M melanoma; 40.9 µM in the assay on NCI-H226 lung. For the same compound, the TGI with NCI-H522 lung was determined as 18.2 µM; with SF-539 CNS it was 16.7 µM; in the assay with SK-MEL-5 melanoma, 20.3 µM; in the assay with SR leukemia, 27.6 µM.

For the compound `C/C(CC(=O)Nc1cccc(C)c1C)=N\NC(N)=S`, the TGI with CCRF-CEM leukemia, with COLO 205 colon, in the assay on HCT-116 colon, in the assay with HT29 colon, in the assay on MALME-3M melanoma and in the assay with NCI-H226 lung was more than 100 µM throughout. For the same compound, the TGI in the assay on NCI-H522 lung was more than 100 µM; in the assay on SF-539 CNS, more than 100 µM; with SK-MEL-5 melanoma, more than 100 µM; with SR leukemia it was 56.5 µM.
